Measured values as given in EP4644383A1 (Jiangsu Yahong Meditech Co., Ltd., priority 2022, dated 2024).

What was measured:
Assay type in all cases: biochemical
[1] = target: T1, FGFR1 (Homo sapiens, UniProt P11362); assay: FGFR1 kinase activity inhibition assay (LanthaScreen TR-FRET); conditions: FGFR1 kinase, TR-FRET; read-out: IC50 (nM) FGFR1
T1 construct: cytoplasmic domain [398-822 (terminal) amino acids]; purchased Carna 08-133
Summary of the method: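 Emission ratio 520 nm/495 nm by TR-FRET after stopping reaction with 10 mM EDTA and 60 min incubation at 22°C. Inhibition normalized between no-enzyme (min) and DMSO (max) controls, then fitted to a four-parameter curve (Top, Bottom, HillSlope).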

[2] = target: T2, FGFR2 (Homo sapiens, UniProt P21802); assay: FGFR2 kinase activity inhibition assay (LanthaScreen TR-FRET); conditions: FGFR2 kinase, TR-FRET; read-out: IC50 (nM) FGFR2
T2 construct: FGFR2's cytoplasmic domain [399-821 (terminal) amino acids]; purchased Carna 08-134
T2 sequence (P21802 399-821): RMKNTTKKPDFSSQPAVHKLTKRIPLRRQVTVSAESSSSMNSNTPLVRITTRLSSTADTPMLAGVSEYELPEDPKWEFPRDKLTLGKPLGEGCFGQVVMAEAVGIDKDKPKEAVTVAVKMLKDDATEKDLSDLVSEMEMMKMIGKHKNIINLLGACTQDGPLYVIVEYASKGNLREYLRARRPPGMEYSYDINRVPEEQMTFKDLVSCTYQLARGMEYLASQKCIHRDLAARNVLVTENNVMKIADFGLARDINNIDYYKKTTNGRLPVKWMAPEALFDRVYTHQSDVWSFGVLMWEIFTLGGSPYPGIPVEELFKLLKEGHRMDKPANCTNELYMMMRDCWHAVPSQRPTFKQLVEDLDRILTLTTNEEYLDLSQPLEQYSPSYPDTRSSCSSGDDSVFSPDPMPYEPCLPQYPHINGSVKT
Experimental: (§1) FGFR1 kinase activity was measured using Invitrogen LanthaScreen™ assay technology, which utilized fluorescently-labeled peptides and terbium-labeled antibodies to directly measure an amount of the phosphorylated substrate through time-resolved fluorescence energy transfer (TR-FRET). • ① The test compounds were diluted: starting from a concentration of 1 µM, with a buffer solution in a three-fold serial dilution, the buffer solution being composed of 50 mM HEPES, 10 mM MgCl2, 0.01% TritonX-100, 0.01% BSA, 4 mM DTT (pH 7.5), and 1% DMSO; • ② 0.01 nM recombinant human GST fusion protein FGFR1's cytoplasmic domain [398-822 (terminal) amino acids] (Carna: 08-133) was formulated into a 2 × solution, mixed well with the test compounds, and incubated at 23°C for 10 minutes; • ③ 28 nM Fluorescein-Poly GT peptide substrate (Life Technologies: PV3611) and 28 µM ATP were formulated into a 2 × solution, mixed well with the test compounds and enzyme in ②, and incubated at 23°C for 30 minutes; • ④ 10 µL of 2nM Tb-PY20 antibody (Life Technologies: PV3552) and 10 mM EDTA were added to quench the kinase reaction, and incubated at 22°C for 60 minutes. • ⑤ The reaction was measured using a PerkinElmer EnVision multimode plate reader through TR-FRET dual wavelength detection. • 1. The RFU values were copied from the Envision program. • 2. The ratio of RFU 520nm/RFU 495nm was calculated. • 3. The value of the ratio was converted to a percentage inhibition value. % Inhibition = (max-data)/(max-min) × 100 [formula]
(§2) "Min" represents the ratio of the control without enzyme, "max" represents the ratio of the DMSO control, and "data" represents the ratio of the compounds in wells with different concentrations.
(§3) "Top" refers to the maximum response, "Bottom" refers to the minimum response, and "HillSlope" refers to the slope of the curve.
According to the same method as that in the FGFR1 kinase activity inhibition assay, the inhibitory activities against FGFR2, FGFR3 and FGFR4 were tested using FGFR2's cytoplasmic domain [399-821 (terminal) amino acids] (Carna: 08-134), FGFR3's cytoplasmic domain [436-806 (terminal) amino acids] (Carna: 08-135) and FGFR4's cytoplasmic domain [460-802 (terminal) amino acids] (Carna: 08-136), respectively. […]

[3] = target: T3, FGFR3 (Homo sapiens, UniProt P22607); assay: FGFR3 kinase activity inhibition assay (LanthaScreen TR-FRET); conditions: for IC50: FGFR3 kinase, TR-FRET, read-out: IC50 (nM) FGFR3; for Selectivity (X) FGFR1/FGFR3: ratio of IC50 FGFR1/FGFR3, selectivity towards FGFR3; for Selectivity (X) FGFR2/FGFR3: ratio of IC50 FGFR2/FGFR3, selectivity towards FGFR3; for Selectivity (X) FGFR4/FGFR3: ratio of IC50 FGFR4/FGFR3, selectivity towards FGFR3
T3 construct: FGFR3's cytoplasmic domain [436-806 (terminal) amino acids]; purchased Carna 08-135
T3 sequence (P22607 436-806): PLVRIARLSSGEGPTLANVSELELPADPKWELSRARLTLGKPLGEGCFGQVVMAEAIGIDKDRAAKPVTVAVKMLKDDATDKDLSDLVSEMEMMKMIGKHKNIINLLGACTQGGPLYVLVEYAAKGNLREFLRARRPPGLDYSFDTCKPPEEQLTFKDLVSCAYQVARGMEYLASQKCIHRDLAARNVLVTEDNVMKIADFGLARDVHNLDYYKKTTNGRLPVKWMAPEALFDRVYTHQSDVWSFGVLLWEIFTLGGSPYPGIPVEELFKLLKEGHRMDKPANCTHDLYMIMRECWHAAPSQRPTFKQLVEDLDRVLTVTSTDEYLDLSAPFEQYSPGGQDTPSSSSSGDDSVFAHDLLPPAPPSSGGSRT
Summary of the method: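 Read-out is TR-FRET, with the 520 nm/495 nm emission ratio normalised to DMSO (max) and enzyme-free (min) controls. Enzyme was the FGFR3 cytoplasmic domain, residues 436-806. EDTA (10 mM) stopped the reaction, followed by 60 min at 22 °C before reading.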

[4] = target: T4, FGFR4 (Homo sapiens, UniProt P22455); assay: FGFR4 kinase activity inhibition assay (LanthaScreen TR-FRET); conditions: FGFR4 kinase, TR-FRET; read-out: IC50 (nM) FGFR4
T4 construct: FGFR4's cytoplasmic domain [460-802 (terminal) amino acids]; purchased Carna 08-136
T4 sequence (P22455 460-802): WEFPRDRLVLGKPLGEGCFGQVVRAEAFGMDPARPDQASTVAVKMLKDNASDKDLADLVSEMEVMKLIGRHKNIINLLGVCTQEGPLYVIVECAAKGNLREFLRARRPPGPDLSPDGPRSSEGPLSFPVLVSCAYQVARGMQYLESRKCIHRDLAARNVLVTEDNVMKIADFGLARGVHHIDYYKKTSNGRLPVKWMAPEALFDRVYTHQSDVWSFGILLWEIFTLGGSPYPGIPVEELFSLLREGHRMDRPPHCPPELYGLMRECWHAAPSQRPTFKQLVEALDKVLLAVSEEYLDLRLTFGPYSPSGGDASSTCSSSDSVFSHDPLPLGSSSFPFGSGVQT
Experimental: as §1, §2, §3
According to the same method as that in the FGFR1 kinase activity inhibition assay, the inhibitory activities against FGFR2, FGFR3 and FGFR4 were tested using FGFR2's cytoplasmic domain [399-821 (terminal) amino acids] (Carna: 08-134), FGFR3's cytoplasmic domain [436-806 (terminal) amino acids] (Carna: 08-135) and FGFR4's cytoplasmic domain [460-802 (terminal) amino acids] (Carna: 08-136), respectively. Table 1 reports the kinase activity inhibition results and selectivity towards FGFR3 of each compound.

T1 sequence (P11362 398-822): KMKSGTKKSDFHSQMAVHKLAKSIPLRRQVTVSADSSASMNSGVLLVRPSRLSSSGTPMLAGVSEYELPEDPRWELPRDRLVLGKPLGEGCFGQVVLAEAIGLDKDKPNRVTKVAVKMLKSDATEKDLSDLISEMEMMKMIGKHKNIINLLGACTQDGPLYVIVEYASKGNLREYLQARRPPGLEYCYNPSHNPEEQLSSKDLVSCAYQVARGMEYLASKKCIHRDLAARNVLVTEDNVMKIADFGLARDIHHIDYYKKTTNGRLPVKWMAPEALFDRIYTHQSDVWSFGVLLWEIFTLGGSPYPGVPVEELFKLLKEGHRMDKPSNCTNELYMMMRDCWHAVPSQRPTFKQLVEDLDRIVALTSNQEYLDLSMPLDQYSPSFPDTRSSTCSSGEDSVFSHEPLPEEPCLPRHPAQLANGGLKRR

Row | Structure (SMILES) | IC50 [1] [nM] | IC50 [2] [nM] | IC50 [3] [nM] | Selectivity (X) FGFR1/FGFR3 [3] | Selectivity (X) FGFR2/FGFR3 [3] | Selectivity (X) FGFR4/FGFR3 [3] | IC50 [4] [nM]
1 | Cc1c[nH]c(-c2n[nH]c3ccc(C(=O)NCCN(C)C)cc23)n1 [Example 80, N-(2-(dimethylamino)ethyl)-3-(4-methyl-1H-imidazol-2-yl)-1H-indazole-5-carboxamide] | > 100 | > 100 | 10 to 100 | D (D represents 100 ≤ multiple X) | D (D represents 100 ≤ multiple X) | D (D represents 100 ≤ multiple X) | > 100
2 | Cc1ccnc2cccc(C(C)Oc3ccc4[nH]nc(-c5cnn(C)c5)c4c3)c12 (stereo not drawn) [Example 126, 4-methyl-5-(1-((3-(1-methyl-1H-pyrazol-4-yl)-1H-indazol-5-yl)oxy)ethyl)qu inoline] | 10 to 100 | 1 to 10 | 1 to 10 | B (B represents 20 ≤ multiple X<50) | A (A represents 1 ≤ multiple X<20) | C (C represents 50 ≤ multiple X<100) | > 100
3 | CC(Oc1ccc2[nH]nc(-c3cnn(C)c3)c2n1)c1c(C(F)F)ccc2ncccc12 (stereo not drawn) [Example 203] | 10 to 100 | 10 to 100 | < 1 | B (B represents 20 ≤ multiple X<50) | B (B represents 20 ≤ multiple X<50) | C (C represents 50 ≤ multiple X<100) | 10 to 100
4 | COC(C)(C)C(=O)N1CC(n2cc(-c3n[nH]c4ccc(OC(C)c5cc(Cl)cc6nccnc56)cc34)cn2)C1 (stereo not drawn) [Example 224, 1-(3-(4-(5-(1-(7-chloroquinoxalin-5-yl)ethoxy)-1H-indazol-3-yl)-1-pyrazol-1-yl)azetidin-1-yl)-2-methoxy-2-methylpropan-1-one] | 10 to 100 | 1 to 10 | < 1 | B (B represents 20 ≤ multiple X<50) | C (C represents 50 ≤ multiple X<100) | D (D represents 100 ≤ multiple X) | 10 to 100
5 | Cc1cc(C(C)Oc2ccc3[nH]nc(-c4cnn(C)c4)c3c2)c2ccnn2c1 (stereo not drawn) [Example 171, 3-(1-methyl-1H-pyrazol-4-yl)-5-(1-(6-methylpyrazolo [1,5-a]pyridin-4-yl)ethoxy)-1H-indazole] | 10 to 100 | 1 to 10 | < 1 | B (B represents 20 ≤ multiple X<50) | A (A represents 1 ≤ multiple X<20) | B (B represents 20 ≤ multiple X<50) | 10 to 100
6 | CC(Oc1ccc2[nH]nc(-c3cnn(C)c3)c2c1)c1cccn2nccc12 (stereo not drawn) [Example 132, 3-(1-methyl-1H-pyrazol-4-yl)-5-(1-(pyrazolo[1,5-a]pyridin-4-yl)ethoxy)-1H-indazole] | 10 to 100 | 1 to 10 | < 1 | B (B represents 20 ≤ multiple X<50) | A (A represents 1 ≤ multiple X<20) | B (B represents 20 ≤ multiple X<50) | 10 to 100
